Results as given in US12370168B2 (scPharmaceuticals Inc., priority 2013, dated 2025).
Like-named read-outs stand apart in the source and are kept apart here.

What was measured:
[1] = Example 4 short term storage stability of 8 mg/mL furosemide Tris-buffered solutions; settings: over 48 hours
Description: Upon preparation, samples were filtered through 0.2 μm nylon filters.
The osmolality values of 50 μL aliquots of each sample were measured by freezing point depression.
Aliquots of each sample were stored at each condition and subsequently filtered and analyzed after 24 and 48 hours of storage.

[2] = 8 mg/mL
[3] = Example 3 stability of 20 mg/mL furosemide Tris-buffered solutions, pH 6.7 to 8.5, ambient temperature; settings: Tris buffer pH 6.7 to 8.5, ambient temperature, over 48 hours
Description: Samples were stored at ambient temperature and subsequently analyzed after 24 and 48 hours of storage.

[4] = Tris buffer pH 7.0, 7.5, 8.0, −20° C., 2° C.-8° C., 25° C., 40° C.
[5] = 25 mM Tris, nominal pH 7.0, 2-8° C., three months
[6] = 25 mM Tris, nominal pH 7.0, 25° C., three months
[7] = 25 mM Tris, nominal pH 7.0, 40° C., three months
[8] = 25 mM Tris, nominal pH 7.0, −20° C., three months
[9] = 25 mM Tris, nominal pH 7.4, 2-8° C., three months
[10] = 25 mM Tris, nominal pH 7.4, 25° C., three months
[11] = 25 mM Tris, nominal pH 7.4, 40° C., three months
[12] = 25 mM Tris, nominal pH 7.4, −20° C., three months
[13] = 25 mM Tris, nominal pH 8.0, 2-8° C., three months
[14] = 25 mM Tris, nominal pH 8.0, 25° C., three months
[15] = 25 mM Tris, nominal pH 8.0, 40° C., three months
[16] = 25 mM Tris, nominal pH 8.0, −20° C., three months
[17] = 50 mM Tris, nominal pH 7.0, 2-8° C., three months
[18] = 50 mM Tris, nominal pH 7.0, 25° C., three months
[19] = 50 mM Tris, nominal pH 7.0, 40° C., three months
[20] = 50 mM Tris, nominal pH 7.0, −20° C., three months
[21] = 50 mM Tris, nominal pH 7.4, 2-8° C., three months
[22] = 50 mM Tris, nominal pH 7.4, 25° C., three months
[23] = 50 mM Tris, nominal pH 7.4, 40° C., three months
[24] = 50 mM Tris, nominal pH 7.4, −20° C., three months
[25] = 50 mM Tris, nominal pH 8.0, 2-8° C., three months
[26] = 50 mM Tris, nominal pH 8.0, 25° C., three months
[27] = 50 mM Tris, nominal pH 8.0, 40° C., three months
[28] = 50 mM Tris, nominal pH 8.0, −20° C., three months
[29] = 100 mM Tris, nominal pH 7.0, 2-8° C., three months
[30] = 100 mM Tris, nominal pH 7.0, 25° C., three months
[31] = 100 mM Tris, nominal pH 7.0, 40° C., three months
[32] = 100 mM Tris, nominal pH 7.0, t0
[33] = 100 mM Tris, nominal pH 7.0, −20° C., three months
[34] = 100 mM Tris, nominal pH 7.4, 2-8° C., three months
[35] = 100 mM Tris, nominal pH 7.4, 25° C., three months
[36] = 100 mM Tris, nominal pH 7.4, 40° C., three months
[37] = 100 mM Tris, nominal pH 7.4, t0
[38] = 100 mM Tris, nominal pH 7.4, −20° C., three months
[39] = 100 mM Tris, nominal pH 8.0, 2-8° C., three months
[40] = 100 mM Tris, nominal pH 8.0, 25° C., three months
[41] = 100 mM Tris, nominal pH 8.0, 40° C., three months
[42] = 100 mM Tris, nominal pH 8.0, t0
[43] = 100 mM Tris, nominal pH 8.0, −20° C., three months
[44] = 25, 50, 100 mM Tris, pH 7.0, 7.4, 8.0, −20° C. to 40° C., three months

With `NS(=O)(=O)c1cc(C(=O)O)c(NCc2ccco2)cc1Cl` [Furosemide, 4-chloro-2-(furan-2-ylmethylamino)-5-sulfamoyl-benzoic acid] the “change in furosemide concentration” value [1, 4] was “No decrease”, the “pH deviation from the initial value” [1, 4] was no more than 0.1 units and the osmolality over time ([1]; Tris buffer) was “consistent”. The Osmolality [2, 5] was 297 mOsm/kg H2O, the “[Furosemide]” value [2, 5] was 8.01 mg/mL and the pH [2, 5] was 7.08. For the same compound, the Osmolality [2, 6] was 298 mOsm/kg H2O, the “[Furosemide]” value [2, 6] was 7.91 mg/mL and the pH [2, 6] was 7.09. For the same compound, the Osmolality [2, 7] was 296 mOsm/kg H2O, the “[Furosemide]” value [2, 7] was 7.89 mg/mL and the pH [2, 7] was 7.08. For the same compound, the Osmolality ([2]; 25 mM Tris, nominal pH 7.0, t0) was 293 mOsm/kg H2O, the “[Furosemide]” value ([2]; 25 mM Tris, nominal pH 7.0, t0) was 8.09 mg/mL and the pH ([2]; 25 mM Tris, nominal pH 7.0, t0) was 7.02. For the same compound, the Osmolality [2, 8] was 296 mOsm/kg H2O, the “[Furosemide]” value [2, 8] was 7.91 mg/mL and the pH [2, 8] was 7.07. For the same compound, the Osmolality [2, 9] was 291 mOsm/kg H2O, the “[Furosemide]” value [2, 9] was 7.79 mg/mL and the pH [2, 9] was 7.49. For the same compound, the Osmolality [2, 10] was 289 mOsm/kg H2O, the “[Furosemide]” value [2, 10] was 7.81 mg/mL and the pH [2, 10] was 7.47. The Osmolality [2, 11] was 290 mOsm/kg H2O, the “[Furosemide]” value [2, 11] was 7.90 mg/mL and the pH [2, 11] was 7.47. The Osmolality ([2]; 25 mM Tris, nominal pH 7.4, t0) was 287 mOsm/kg H2O, the “[Furosemide]” value ([2]; 25 mM Tris, nominal pH 7.4, t0) was 8.00 mg/mL and the pH ([2]; 25 mM Tris, nominal pH 7.4, t0) was 7.42. For the same compound, the Osmolality [2, 12] was 288 mOsm/kg H2O, the “[Furosemide]” value [2, 12] was 7.92 mg/mL and the pH [2, 12] was 7.47. The Osmolality [2, 13] was 292 mOsm/kg H2O, the “[Furosemide]” value [2, 13] was 7.97 mg/mL and the pH [2, 13] was 8.07. For the same compound, the Osmolality [2, 14] was 294 mOsm/kg H2O, the “[Furosemide]” value [2, 14] was 7.76 mg/mL and the pH [2, 14] was 8.06. For the same compound, the Osmolality [2, 15] was 294 mOsm/kg H2O, the “[Furosemide]” value [2, 15] was 7.99 mg/mL and the pH [2, 15] was 8.07. For the same compound, the Osmolality ([2]; 25 mM Tris, nominal pH 8.0, t0) was 289 mOsm/kg H2O, the “[Furosemide]” value ([2]; 25 mM Tris, nominal pH 8.0, t0) was 8.08 mg/mL and the pH ([2]; 25 mM Tris, nominal pH 8.0, t0) was 8.04. For the same compound, the Osmolality [2, 16] was 291 mOsm/kg H2O, the “[Furosemide]” value [2, 16] was 7.91 mg/mL and the pH [2, 16] was 8.06. For the same compound, the Osmolality [2, 17] was 294 mOsm/kg H2O, the “[Furosemide]” value [2, 17] was 8.02 mg/mL and the pH [2, 17] was 7.10. For the same compound, the Osmolality [2, 18] was 290 mOsm/kg H2O, the “[Furosemide]” value [2, 18] was 8.07 mg/mL and the pH [2, 18] was 7.10. The Osmolality [2, 19] was 295 mOsm/kg H2O, the “[Furosemide]” value [2, 19] was 7.94 mg/mL and the pH [2, 19] was 7.12. For the same compound, the Osmolality ([2]; 50 mM Tris, nominal pH 7.0, t0) was 290 mOsm/kg H2O, the “[Furosemide]” value ([2]; 50 mM Tris, nominal pH 7.0, t0) was 8.06 mg/mL and the pH ([2]; 50 mM Tris, nominal pH 7.0, t0) was 7.04. For the same compound, the Osmolality [2, 20] was 289 mOsm/kg H2O, the “[Furosemide]” value [2, 20] was 8.12 mg/mL and the pH [2, 20] was 7.13. The Osmolality [2, 21] was 293 mOsm/kg H2O, the “[Furosemide]” value [2, 21] was 8.10 mg/mL and the pH [2, 21] was 7.50. The Osmolality [2, 22] was 292 mOsm/kg H2O, the “[Furosemide]” value [2, 22] was 7.87 mg/mL and the pH [2, 22] was 7.49. The Osmolality [2, 23] was 296 mOsm/kg H2O, the “[Furosemide]” value [2, 23] was 7.97 mg/mL and the pH [2, 23] was 7.50. For the same compound, the Osmolality ([2]; 50 mM Tris, nominal pH 7.4, t0) was 289 mOsm/kg H2O, the “[Furosemide]” value ([2]; 50 mM Tris, nominal pH 7.4, t0) was 8.09 mg/mL and the pH ([2]; 50 mM Tris, nominal pH 7.4, t0) was 7.44. For the same compound, the Osmolality [2, 24] was 292 mOsm/kg H2O, the “[Furosemide]” value [2, 24] was 7.93 mg/mL and the pH [2, 24] was 7.52. The Osmolality [2, 25] was 296 mOsm/kg H2O, the “[Furosemide]” value [2, 25] was 7.84 mg/mL and the pH [2, 25] was 8.10. The Osmolality [2, 26] was 296 mOsm/kg H2O, the “[Furosemide]” value [2, 26] was 7.82 mg/mL and the pH [2, 26] was 8.09. For the same compound, the Osmolality [2, 27] was 289 mOsm/kg H2O, the “[Furosemide]” value [2, 27] was 7.95 mg/mL and the pH [2, 27] was 8.10. The Osmolality ([2]; 50 mM Tris, nominal pH 8.0, t0) was 288 mOsm/kg H2O, the “[Furosemide]” value ([2]; 50 mM Tris, nominal pH 8.0, t0) was 8.14 mg/mL and the pH ([2]; 50 mM Tris, nominal pH 8.0, t0) was 8.04. The Osmolality [2, 28] was 289 mOsm/kg H2O, the “[Furosemide]” value [2, 28] was 7.93 mg/mL and the pH [2, 28] was 8.11. For the same compound, the Osmolality [2, 29] was 296 mOsm/kg H2O, the “[Furosemide]” value [2, 29] was 7.89 mg/mL and the pH [2, 29] was 7.00. For the same compound, the Osmolality [2, 30] was 293 mOsm/kg H2O, the “[Furosemide]” value [2, 30] was 7.79 mg/mL and the pH [2, 30] was 6.99. The Osmolality [2, 31] was 294 mOsm/kg H2O, the “[Furosemide]” value [2, 31] was 7.87 mg/mL and the pH [2, 31] was 6.98. For the same compound, the Osmolality [2, 32] was 292 mOsm/kg H2O, the “[Furosemide]” value [2, 32] was 8.04 mg/mL and the pH [2, 32] was 7.02. For the same compound, the Osmolality [2, 33] was 298 mOsm/kg H2O, the “[Furosemide]” value [2, 33] was 7.90 mg/mL and the pH [2, 33] was 7.00. For the same compound, the Osmolality [2, 34] was 301 mOsm/kg H2O, the “[Furosemide]” value [2, 34] was 7.95 mg/mL and the pH [2, 34] was 7.41. The Osmolality [2, 35] was 295 mOsm/kg H2O, the “[Furosemide]” value [2, 35] was 7.82 mg/mL and the pH [2, 35] was 7.41. The Osmolality [2, 36] was 297 mOsm/kg H2O, the “[Furosemide]” value [2, 36] was 7.90 mg/mL and the pH [2, 36] was 7.39. For the same compound, the Osmolality [2, 37] was 297 mOsm/kg H2O, the “[Furosemide]” value [2, 37] was 8.17 mg/mL and the pH [2, 37] was 7.42. For the same compound, the Osmolality [2, 38] was 301 mOsm/kg H2O, the “[Furosemide]” value [2, 38] was 7.92 mg/mL and the pH [2, 38] was 7.42. For the same compound, the Osmolality [2, 39] was 295 mOsm/kg H2O, the “[Furosemide]” value [2, 39] was 7.91 mg/mL and the pH [2, 39] was 7.99. For the same compound, the Osmolality [2, 40] was 288 mOsm/kg H2O, the “[Furosemide]” value [2, 40] was 7.79 mg/mL and the pH [2, 40] was 7.97. The Osmolality [2, 41] was 294 mOsm/kg H2O, the “[Furosemide]” value [2, 41] was 7.79 mg/mL and the pH [2, 41] was 7.98. For the same compound, the Osmolality [2, 42] was 292 mOsm/kg H2O, the “[Furosemide]” value [2, 42] was 8.08 mg/mL and the pH [2, 42] was 7.99. For the same compound, the Osmolality [2, 43] was 296 mOsm/kg H2O, the “[Furosemide]” value [2, 43] was 7.89 mg/mL and the pH [2, 43] was 7.99. For the same compound, the “change in furosemide concentration” value [2, 44] was “no change”, the change in osmolality [2, 44] was “no change” and the “change in pH” value [2, 44] was “no change”. The “change in visual appearance” value [2, 44] was “no change”, the “change in furosemide concentration” value [3] was “No decrease” and the “pH deviation from the initial value” [3] was no more than 0.1 units.
